Reference: patent US12077503B2, “Substituted cyclic amides and their use as herbicides” (FMC CORPORATION, priority 2015, dated 2024)

What was measured:
Format in all cases: in vivo
[1] = tested on: velvetleaf (Abutilon theophrasti); test: Test G Pre-Emergence Protocol; details: Abutilon theophrasti, pre-emergence, 312 h, evaluated after 13 days; for pest or weed control at 15.625 g/ha: 15.625 g ai/ha; for pest or weed control at 15.625 g/ha / pest or weed control at 250 g/ha: read-out: Velvetleaf damage rating (100=total damage to plant; 0=no damage to plant); for pest or weed control at 62.5 g/ha: 62.5 g ai/ha, 100=total damage to plant, 0=no damage to plant, read-out: plant damage rating, Velvetleaf; for pest or weed control at 250 g/ha: 250 g ai/ha
In short: (§1)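 Spraying took place one day after sowing, at 15.625, 62.5 or 250 g/ha, using an acetone/water (50:50) spray solution containing 0.5% Tween 20. Plants were kept under glasshouse conditions (24/16 °C, 14 h light, 65% humidity, watered twice daily), and injury was rated 0–100 at day 13.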

[2] = tested on: redroot pigweed (Amaranthus retroflexus); test: Test G Pre-Emergence Protocol; details: Amaranthus retroflexus, pre-emergence, 312 h, evaluated after 13 days; for pest or weed control at 15.625 g/ha: 15.625 g ai/ha; for pest or weed control at 15.625 g/ha / pest or weed control at 250 g/ha: read-out: Pigweed, Redroot damage rating (100=total damage to plant; 0=no damage to plant); for pest or weed control at 62.5 g/ha: 62.5 g ai/ha, 100=total damage to plant, 0=no damage to plant, read-out: plant damage rating, Pigweed, Redroot; for pest or weed control at 250 g/ha: 250 g ai/ha
In short: as §1

[3] = tested on: giant foxtail (Setaria faberi); test: Test G Pre-Emergence Protocol; details: Setaria faberi, pre-emergence, 312 h, evaluated after 13 days; for pest or weed control at 15.625 g/ha: 15.625 g ai/ha; for pest or weed control at 15.625 g/ha / pest or weed control at 250 g/ha: read-out: Foxtail, Giant damage rating (100=total damage to plant; 0=no damage to plant); for pest or weed control at 62.5 g/ha: 62.5 g ai/ha, 100=total damage to plant, 0=no damage to plant, read-out: plant damage rating, Foxtail, Giant; for pest or weed control at 250 g/ha: 250 g ai/ha
In short: as §1

[4] = tested on: barnyardgrass (Echinochloa crus-galli); test: Test G Pre-Emergence Protocol; details: Echinochloa crus-galli, pre-emergence, 312 h, evaluated after 13 days; for pest or weed control at 15.625 g/ha: 15.625 g ai/ha, read-out: Barnyard grass damage rating (100=total damage to plant; 0=no damage to plant); for pest or weed control at 62.5 g/ha: 62.5 g ai/ha, 100=total damage to plant, 0=no damage to plant, read-out: plant damage rating, Barnyardgrass; for pest or weed control at 250 g/ha: 250 g ai/ha, read-out: Barnyardgrass damage rating (100=total damage to plant; 0=no damage to plant)
In short: as §1

corn (Zea mays) [5] = test: Test G Pre-Emergence Protocol; details: Zea mays, pre-emergence, 312 h, evaluated after 13 days; for plant injury at 15.625 g/ha: 15.625 g ai/ha; for plant injury at 15.625 g/ha / plant injury at 250 g/ha: read-out: Corn damage rating (100=total damage to plant; 0=no damage to plant); for plant injury at 62.5 g/ha: 62.5 g ai/ha, 100=total damage to plant, 0=no damage to plant, read-out: plant damage rating, Corn; for plant injury at 250 g/ha: 250 g ai/ha
In short: as §1

[6] = tested on: ivy-leaved morning glory (Ipomoea hederacea); test: Test G Pre-Emergence Protocol; details: Ipomoea, pre-emergence, 312 h, evaluated after 13 days; for pest or weed control at 15.625 g/ha: 15.625 g ai/ha, read-out: Morning-glory, Ivy-leaved damage rating (100=total damage to plant; 0=no damage to plant); for pest or weed control at 62.5 g/ha: 62.5 g ai/ha, 100=total damage to plant, 0=no damage to plant, read-out: plant damage rating, Morningglory, Ivy-leaved; for pest or weed control at 250 g/ha: 250 g ai/ha, read-out: Morningglory, Ivy-leaved damage rating (100=total damage to plant; 0=no damage to plant)
In short: as §1

[7] = tested on: velvetleaf (Abutilon theophrasti); test: Test G Post-Emergence Protocol; details: Abutilon theophrasti, post-emergence, 312 h; for pest or weed control at 15.625 g/ha: 15.625 g ai/ha, evaluated after 13 days (100=total damage to plant; 0=no damage to plant), read-out: Velvetleaf damage rating; for pest or weed control at 62.5 g/ha: 62.5 g ai/ha, read-out: Velvetleaf damage rating (100=total damage to plant; 0=no damage to plant); for pest or weed control at 62.5 g/ha / pest or weed control at 250 g/ha: evaluated after 13 days; for pest or weed control at 250 g/ha: 250 g ai/ha, read-out: damage to plant, Velvetleaf (100=total damage to plant; 0=no damage to plant)
In short: (§2)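 Foliar application was made 8 days after sowing, using an aqueous spray of the active in acetone/water (50:50) with 0.5% Tween 20, at doses of 15.625, 62.5 or 250 g/ha. Injury was assessed 13 days later, where 100 meant the plant was fully damaged.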

[8] = tested on: redroot pigweed (Amaranthus retroflexus); test: Test G Post-Emergence Protocol; details: Amaranthus retroflexus, post-emergence, 312 h; for pest or weed control at 15.625 g/ha: 15.625 g ai/ha, evaluated after 13 days (100=total damage to plant; 0=no damage to plant), read-out: Pigweed, Redroot damage rating; for pest or weed control at 62.5 g/ha: 62.5 g ai/ha, read-out: Pigweed, Redroot damage rating (100=total damage to plant; 0=no damage to plant); for pest or weed control at 62.5 g/ha / pest or weed control at 250 g/ha: evaluated after 13 days; for pest or weed control at 250 g/ha: 250 g ai/ha, read-out: damage to plant, Pigweed, Redroot (100=total damage to plant; 0=no damage to plant)
In short: as §2

[9] = tested on: giant foxtail (Setaria faberi); test: Test G Post-Emergence Protocol; details: Setaria faberi, post-emergence, 312 h; for pest or weed control at 15.625 g/ha: 15.625 g ai/ha, evaluated after 13 days (100=total damage to plant; 0=no damage to plant), read-out: Foxtail, Giant damage rating; for pest or weed control at 62.5 g/ha: 62.5 g ai/ha, read-out: Foxtail, Giant damage rating (100=total damage to plant; 0=no damage to plant); for pest or weed control at 62.5 g/ha / pest or weed control at 250 g/ha: evaluated after 13 days; for pest or weed control at 250 g/ha: 250 g ai/ha, read-out: damage to plant, Foxtail, Giant (100=total damage to plant; 0=no damage to plant)
In short: as §2

[10] = tested on: barnyardgrass (Echinochloa crus-galli); test: Test G Post-Emergence Protocol; details: Echinochloa crus-galli, post-emergence, 312 h; for pest or weed control at 15.625 g/ha: 15.625 g ai/ha, evaluated after 13 days (100=total damage to plant; 0=no damage to plant), read-out: Barnyardgrass damage rating; for pest or weed control at 62.5 g/ha: 62.5 g ai/ha, read-out: Barnyardgrass damage rating (100=total damage to plant; 0=no damage to plant); for pest or weed control at 62.5 g/ha / pest or weed control at 250 g/ha: evaluated after 13 days; for pest or weed control at 250 g/ha: 250 g ai/ha, read-out: damage to plant, Barnyardgrass (100=total damage to plant; 0=no damage to plant)
In short: as §2

corn (Zea mays) [11] = test: Test G Post-Emergence Protocol; details: Zea mays, post-emergence, 312 h; for plant injury at 15.625 g/ha: 15.625 g ai/ha, evaluated after 13 days (100=total damage to plant; 0=no damage to plant), read-out: Corn damage rating; for plant injury at 62.5 g/ha: 62.5 g ai/ha, read-out: Corn damage rating (100=total damage to plant; 0=no damage to plant); for plant injury at 62.5 g/ha / plant injury at 250 g/ha: evaluated after 13 days; for plant injury at 250 g/ha: 250 g ai/ha, read-out: damage to plant, Corn (100=total damage to plant; 0=no damage to plant)
In short: as §2

[12] = tested on: ivy-leaved morning glory (Ipomoea hederacea); test: Test G Post-Emergence Protocol; details: Ipomoea, post-emergence, 312 h; for pest or weed control at 15.625 g/ha: 15.625 g ai/ha, evaluated after 13 days (100=total damage to plant; 0=no damage to plant), read-out: Morningglory, Ivy-leaved damage rating; for pest or weed control at 62.5 g/ha: 62.5 g ai/ha, read-out: Morningglory, Ivy-leaved damage rating (100=total damage to plant; 0=no damage to plant); for pest or weed control at 62.5 g/ha / pest or weed control at 250 g/ha: evaluated after 13 days; for pest or weed control at 250 g/ha: 250 g ai/ha, read-out: damage to plant, Morningglory, Ivy-leaved (100=total damage to plant; 0=no damage to plant)
In short: as §2

SMILES | pest or weed control at 15.625 g/ha [1] | pest or weed control at 62.5 g/ha [1] | pest or weed control at 250 g/ha [1] | pest or weed control at 15.625 g/ha [2] | pest or weed control at 62.5 g/ha [2] | pest or weed control at 250 g/ha [2] | pest or weed control at 15.625 g/ha [3] | pest or weed control at 62.5 g/ha [3] | pest or weed control at 250 g/ha [3] | pest or weed control at 15.625 g/ha [4] | pest or weed control at 62.5 g/ha [4] | pest or weed control at 250 g/ha [4] | plant injury at 15.625 g/ha (corn (Zea mays) [5]) | plant injury at 62.5 g/ha (corn (Zea mays) [5]) | plant injury at 250 g/ha (corn (Zea mays) [5]) | pest or weed control at 15.625 g/ha [6] | pest or weed control at 62.5 g/ha [6] | pest or weed control at 250 g/ha [6] | pest or weed control at 15.625 g/ha [7] | pest or weed control at 62.5 g/ha [7] | other results
CN1C[C@H](c2cccc(C(F)F)c2)[C@@H](C(=O)Nc2ccccc2F)C1=O (racemic) [Compound 1464] | 0% | 0% | 0% | 0% | 0% | 0% | 80% | 90% | 90% | 80% | 90% | 90% | 0% | 50% | 80% | 0% | 30% | 70% | 10% | 0% | pest or weed control at 250 g/ha [7]: 10%; pest or weed control at 15.625 g/ha [8]: 10%; pest or weed control at 62.5 g/ha [8]: 10%; pest or weed control at 250 g/ha [8]: 30%; pest or weed control at 15.625 g/ha [9]: 70%; pest or weed control at 62.5 g/ha [9]: 70%; pest or weed control at 250 g/ha [9]: 70%; pest or weed control at 15.625 g/ha [10]: 20%; pest or weed control at 62.5 g/ha [10]: 20%; pest or weed control at 250 g/ha [10]: 50%; plant injury at 15.625 g/ha (corn (Zea mays) [11]): 20%; plant injury at 62.5 g/ha (corn (Zea mays) [11]): 10%; plant injury at 250 g/ha (corn (Zea mays) [11]): 80%; pest or weed control at 15.625 g/ha [12]: 10%; pest or weed control at 62.5 g/ha [12]: 20%; pest or weed control at 250 g/ha [12]: 50%
COc1c(Cl)ccc([C@H]2CNC(=O)[C@@H]2C(=O)Nc2cccc(F)n2)c1F (racemic) [Compound 1478] | 0% | 0% | 0% | 0% | 0% | 0% | 0% | 0% | 40% | 0% | 0% | 30% | 0% | 0% | 10% | 0% | 0% | 0% | 0% | 0% | pest or weed control at 250 g/ha [7]: 0%; pest or weed control at 15.625 g/ha [8]: 0%; pest or weed control at 62.5 g/ha [8]: 0%; pest or weed control at 250 g/ha [8]: 10%; pest or weed control at 15.625 g/ha [9]: 10%; pest or weed control at 62.5 g/ha [9]: 30%; pest or weed control at 250 g/ha [9]: 60%; pest or weed control at 15.625 g/ha [10]: 10%; pest or weed control at 62.5 g/ha [10]: 40%; pest or weed control at 250 g/ha [10]: 60%; plant injury at 15.625 g/ha (corn (Zea mays) [11]): 0%; plant injury at 62.5 g/ha (corn (Zea mays) [11]): 10%; plant injury at 250 g/ha (corn (Zea mays) [11]): 20%; pest or weed control at 15.625 g/ha [12]: 0%; pest or weed control at 62.5 g/ha [12]: 0%; pest or weed control at 250 g/ha [12]: 10%
